These results are taken from patent US20110039799A1, “A1 ADENOSINE RECEPTOR AGONIST POLYMORPHS” (Gilead Palo Alto, Inc., priority 2009, published 2011).

Each structure is given as a SMILES string. “Also recorded” adds a separate entry of the source.

For data set [1] the following is noted: cited from earlier work.
The nature of data set [2]: Solid-state stability by DSC thermogram (storage, wet granulation, direct compression, grinding). In kind it is physicochemical. Conditions: for stability when stored, in comparison to compound formed from Example 1: storage, ambient temperature and 75% relative humidity (Form III 5 months, Form IV 3 months). On the procedure:
Differential scanning calorimetry (DSC) was performed using a TA Instruments differential scanning calorimeter either Q1000 or Q2000. The sample was placed into an aluminum DSC pan, and the weight accurately recorded. The pan was covered with a lid (sometimes the lid was perforated with a (laser) pinhole to allow for pressure release), and then either crimped or hermetically sealed. The sample cell was equilibrated at either 25° C. (Q2000) or 40° C. (Q1000) and heated under a nitrogen purge at a rate of 10° C./min, up to a final temperature of either 180 (Q1000)° C. or 250° C. (Q2000). Indium metal was used as the calibration standard.
On the technique in general: Differential scanning calorimetry records heat flow against a reference as temperature is scanned.

Data set [3] is described as follows: Water vapor sorption (dynamic vapor adsorption), hygroscopicity. In kind it is physicochemical. Conditions: adsorption/desorption 5% to 95% relative humidity. On the procedure: Water vapor sorption data were collected on a VTI SGA-100 Vapor Sorption Analyzer. Adsorption and desorption data were collected over a range of 5% to 95% relative humidity (RH) at 10% RH intervals under a nitrogen purge. The samples were not dried prior to analyses. Equilibrium criteria used for the analyses were less than 0.0100% weight change in 5 minutes, with a maximum equilibration time of 3 hours if the weight criterion was not met. Data were not corrected for the initial moisture content of the samples. NaCl and PVP were used as calibration standards.

The conditions of data set [4]: in vivo, US 2007/018505 Example 32; cited from earlier work.

Regarding `Nc1ncnc2c1ncn2[C@@H]1O[C@H](CO)[C@@H](O)[C@H]1O` [adenosine, Adenosine], the half-life result in data set [1] is on record as “less than 10 seconds”.
With `O[C@@H]1[C@H](O)[C@@H](CSc2ccccc2F)O[C@H]1n1cnc2c(N[C@@H]3CCC[C@H]3O)ncnc21` [Example 1, 2-{6-[((1R,2R)-2-hydroxycyclopentyl)amino]purin-9-yl}(4S,5S,2R,3R)-5-[(2-fluorophenylthio)methyl]oxolane-3,4-diol], in data set [2], the “solid-state stability by DSC thermogram when subjected to direct compression and grinding” value was “DSC thermogram change and instability”; the “solid-state stability by DSC thermogram when subjected to wet granulation” value is “DSC thermogram change and instability”. For the same compound, the “DSC thermogram upon storage” value in data set [2] (storage at 40° C. and 75% relative humidity for 2 months) is listed as “DSC thermogram change”. Further, the “hygroscopicity by dynamic vapor adsorption” value (from here on “hygroscopicity”) in data set [3] is listed as “high hygroscopicity”.
In the case of `O[C@@H]1[C@H](O)[C@@H](CSc2ccccc2F)O[C@H]1n1cnc2c(N[C@@H]3CCC[C@H]3O)ncnc21` [Form IV, 2-{6-[((1R,2R)-2-hydroxycyclopentyl)amino]purin-9-yl}(4S,5S,2R,3R)-5-[(2-fluorophenylthio)methyl]oxolane-3,4-diol], in data set [2], the “stability when stored, in comparison to compound formed from Example 1” value is listed as “enhanced stability”. Also, in data set [3], the “hygroscopicity” value was “non-hygroscopic; also recorded: not hygroscopic”.
In the case of `O[C@@H]1[C@H](O)[C@@H](CSc2ccccc2F)O[C@H]1n1cnc2c(N[C@@H]3CCC[C@H]3O)ncnc21` [GS-9667, 2-{6-[((1R,2R)-2-hydroxycyclopentyl)amino]purin-9-yl}(4S,5S,2R,3R)-5-[(2-fluorophenylthio)methyl]oxolane-3,4-diol], in data set [4], the “circulating free fatty acides (FFA)” value is given as “lowering”, the insulin sensitivity entry is “improving” and the “serum triglyceride (TG) levels” value is “lowering”.
For `O[C@@H]1[C@H](O)[C@@H](CSc2ccccc2F)O[C@H]1n1cnc2c(N[C@@H]3CCC[C@H]3O)ncnc21` [Form III, 2-{6-[((1R,2R)-2-hydroxycyclopentyl)amino]purin-9-yl}(4S,5S,2R,3R)-5-[(2-fluorophenylthio)methyl]oxolane-3,4-diol], in data set [2], the “solid-state stability by DSC thermogram when subjected to direct compression and grinding” value is “not affected”; the “stability when stored, in comparison to compound formed from Example 1” value was “enhanced stability”; the “solid-state stability by DSC thermogram when subjected to wet granulation” value is “not affected”. For the same compound, in data set [2] (general statement), the “stability to moisture, mechanical stress, pharmaceutical processing, and temperature changes, relative to other crystalline forms” value is listed as “superior”. Moreover, in data set [3], the “hygroscopicity” value is “non-hygroscopic; also recorded: not hygroscopic”.
